Experimental findings from patent US8840904B2, “Compositions and methods for vaccinating against HSV-2” (priority 2006, dated 2014) are described below.

What is called pIC50 is the IC50 on a negative log10 scale, so that one unit is a factor of ten.

For assay [1], the target named is recombinant HLA B*0702 (Homo sapiens, UniProt P01889). The assay can be described thus: biochemical. Format: binding.
Assay [2] relates to CD8^+ T-cells specific for the “majority”. The assay can be described thus: Cross-reactivity of CD8+ T-cells with UL49 AA 49-57 variants. Format: cell-based, human.

pIC50: −log10 of the molar value. No end group written: not given here.

For RPRGEVREFL, the pIC50 in assay [1] is over 8.70.
Take RPRGKVRFL: the “cross-reactivity of majority-specific CD8^+ T-cells” value in assay [2] is “not cross-reactive”.
